# Reference: patent publication US10472610B2, “Method for generating pancreatic bud cells and therapeutic agent for pancreatic disease containing pancreatic bud cells” (Kyoto University, priority 2014, dated 2019)
# Tests used:
# [1] = tested on: iPS cell line 585A1; assay: Modified adherent culture protocol, additives during Stage 3, flow cytometer or image analyzer; type: cell-based, human; details: for ratio of NKX6.1^+ cells / ratio of PDX1^+NKX6.1^+ cells: compound in Stage 3 medium, modified protocol, 4 days
# Method: Cells of iPS cell line 585A1 were seeded on a Matrigel coated 24 well plate at a density of 2.0×10^5 cells/well, and the cells were cultured in RPMI 1640 Medium (Nacalai Tesque, Inc.) supplemented with 2% B-27 (Life Technologies), to which 100 ng/ml of activin A (R&D systems), 3 μM of CHIR99021 (Axon Medchem) and 10 μM of Y-27632 (Wako Pure Chemical Industries, Ltd.) were added, for one day. The medium was exchanged with RPMI 1640 Medium containing 100 ng/ml of activin A, 1 μM of CHIR99021 and 2% B-27 (Life Technologies), and the cells were cultured for two days. In addition, the medium was exchanged with RPMI 1640 Medium containing 100 ng/ml of activin A and 2% B-27 (Life Technologies), and the cells were cultured for one day.
# The medium was exchanged with Improved MEM Zinc Option (Invitrogen) containing 50 ng/ml of KGF (R&D systems) and 1% B-27 (Life Technologies), and the cells were cultured for 3 or 4 days. Subsequently, the medium was exchanged with Improved MEM Zinc Option containing 50 ng/ml of KGF, 100 ng/ml of Noggin (Peprotech), 10 nM of TTNPB (Santa Cruz Biotechnology), 0.5 μM of 3-Keto-N-aminoethyl-N′-aminocaproyldihydrocinnamoyl Cyclopamine (KAAD-cyclopamine or K-CYC) (Toronto Research Chemicals) and 1% B-27 and the cells were cultured for 2 or 3 days.
# [2] = tested on: human ES cell line KhES3; details: added in Stage 3 on day 2 or after for 1-2 days
# Method: In the figure, arrows indicate time periods when ALK5 inhibitor II was added to the medium. […] The expressions were measured by a flow cytometer. In the figure, numbers indicate the ratio of PDX1^+ and NKX6.1^+ cells contained in the culture.
# The cells obtained in Stage 2 were dissociated into single cells with trypsin and seeded on a Low Attachment 96-well plate (Lipidure Coat, NOF) at a density of 3.0×10^3 to 3.0×10^4 cells/well. Improved MEM Zinc Option (15×10^4 cells/ml) containing 100 ng/ml of KGF, 100 ng/ml of Noggin, 50 ng/ml of EGF (R&D systems), 10 μM of Y-27632 and 1% B-27 was added to the plate, and the cells were further cultured for 4 to 20 days. During this time period, the medium was exchanged with fresh medium every 4 days. As a control, cells obtained in Stage 2 were dissociated into single cells with trypsin and seeded on a Matrigel coated 24 well plate (Greiner) at a density of 6.0×10^4 to 4.8×10^5 cells/cm^2 and cultured under adhesive conditions in the same medium for four days. […]
# The cells obtained at four days after the start of Stage (S3d4) were treated with BD Cytofix/Cytoperm™ Kit, stained with an anti-PDX1 antibody (R&D systems) and an anti-NKX6.1 antibody (University of Iowa), and the ratio of PDX1^+ cells as well as the ratio of PDX1^+NKX6.1^+ cells were determined by using a flow cytometer.
# [3] = tested on: iPS cell line 585A1; assay: Adherent culture protocol, Y-27632 during Stage 3, flow cytometry of PDX1/NKX6.1; type: cell-based, human; details: four days
# Method: Cells of iPS cell line 585A1 were seeded on a Matrigel coated 24 well plate at a density of 2.0×10^5 cells/well, and cultured in RPMI 1640 Medium (Nacalai Tesque, Inc.) supplemented with 2% B-27 (Life Technologies), 100 ng/ml of activin A (R&D systems), 3 μM of CHIR99021 (Axon Medchem) and 10 μM of Y-27632 (Wako Pure Chemical Industries, Ltd.) for one day. The medium was exchanged with RPMI 1640 Medium containing 100 ng/ml of activin A, 1 μM of CHIR99021 and 2% B-27 (Life Technologies), and the cells were cultured for two days. The medium was then exchanged with RPMI 1640 Medium containing 100 ng/ml of activin A and 2% B-27 (Life Technologies), and the cells were cultured for one day.
# The medium of the culture obtained in Stage 1 was exchanged with Improved MEM Zinc Option (Invitrogen) containing 50 ng/ml of KGF (R&D systems) and 1% B-27 (Life Technologies) and the cells were cultured for three days. Subsequently, the medium was exchanged with Improved MEM Zinc Option containing 50 ng/ml of KGF, 100 ng/ml of Noggin (Peprotech), 10 nM of TTNPB (Santa Cruz Biotechnology), 0.5 μM of 3-Keto-N-aminoethyl-N′-aminocaproyldihydrocinnamoyl Cyclopamine (KAAD-cyclopamine or K-CYC) (Toronto Research Chemicals) and 1% B-27, and the cells were cultured for three days.
structure (smiles),measurement,setting,value
CCn1c(-c2nonc2N)nc2cnc(Oc3cccc(NC(=O)c4ccc(OCCN5CCOCC5)cc4)c3)cc21 [GSK269962],concentration at which the effect on the ratio of NKX6.1^+ cells was highest,"[1]; Stage 3, modified protocol",1 µM
same,ratio of NKX6.1^+ cells,[1],increased in a concentration-dependent manner
"Cc1cccc(-c2n[nH]cc2-c2ccc3ncccc3n2)n1 [ALK5 inhibitor II, 2-[3-[6-methylpyridin-2-yl]-1H-pyrazol-4-yl]-1,5-naphthyridine]",ratio of PDX1^+NKX6.1^+ cells,[2],increased
Cc1cncc2cccc(S(=O)(=O)N3CCCNC[C@@H]3C)c12 [H-1152],concentration at which the effect on the ratio of NKX6.1^+ cells was highest,"[1]; Stage 3, modified protocol",50 µM
same,ratio of NKX6.1^+ cells,[1],increased in a concentration-dependent manner
O=S(=O)(c1cccc2cnccc12)N1CCCNCC1 [Fasudil],concentration at which the effect on the ratio of PDX1^+NKX6.1^+ cells was highest,"[1]; Stage 3, modified protocol",50 µM
same,ratio of PDX1^+NKX6.1^+ cells,[1],increased in a concentration-dependent manner
Cc1ccc2c(c1)C(=O)C1(O)CCN(c3ccccc3)C1=N2 (centres unmarked) [Blebbistatin],concentration from which the ratio of PDX1^+NKX6.1^+ cells increased,"[1]; Stage 3, modified protocol",5 µM
same,concentration up to which the effect on the ratio of PDX1^+NKX6.1^+ cells was high,"[1]; Stage 3, modified protocol",up to 20 μM
same,ratio of PDX1^+NKX6.1^+ cells,[1],increased
C[C@@H](N)[C@H]1CC[C@H](C(=O)Nc2ccncc2)CC1 [Y-27632],concentration at which the effect on the ratio of PDX1^+NKX6.1^+ cells was highest,"[3]; Stage 3, adherent culture",100 µM
same,ratio of PDX1^+NKX6.1^+ cells,"[3]; compound in Stage 3 medium, adherent culture",increased in a concentration-dependent manner
CN(C)CCOc1cc(-c2cn[nH]c2)ccc1NC(=O)C1COc2ccccc2O1 (centres unmarked) [SR3677],concentration at which the effect on the ratio of NKX6.1^+ cells was highest,"[1]; Stage 3, modified protocol",5 µM
same,ratio of NKX6.1^+ cells,[1],increased in a concentration-dependent manner
